One assay addresses Human recombinant IDO1 (Homo sapiens (Human), UniProt P14902). Put plainly: IDO1 enzymatic assay (UV absorption at 321 nm). Format: biochemical. The conditions noted are these: human recombinant IDO1, 80 min incubation, room temperature; read-out: hIDO1 IC50. The protocol: The detailed experimental method is as follow:
The compounds described in this disclosure were dissolved in 10% DMSO to predefined concentration. All of the reactions were conducted at room temperature in this disclosure. Human recombinant IDO1 (BPS Bioscience) was added so that its concentration was 200 nm in the reaction buffer solution (200 μL). […] 10 μL test compound solution was added into the above reaction solution (200 μL), so that the final concentration of DMSO in all reaction wells was 0.5%. % concentration was volume %. After 80 min incubation of the reaction solution, the UV absorbance was measured using TECAN Infinite M1000 plate reader. For the negative control (blank), 10 μl of the assay buffer was added instead of the IDO1
All reagents (excluding human recombinant IDO1) were purchased from Sigma Aldrich, MO, USA.
The percent activity in the presence of each compound was calculated according to the following equation: % activity=[(A−Ab)/(At−Ab)]×100, where A=the absorption signal in the presence of the compound, Ab=the absorption signal of blank, At=the absorption signal in the absence of the compound. […] The IC50 was calculated using non-linear regression in Graph Pad Prism® 4.

The target in the next assay is HeLa cell IDO1 (Homo sapiens (Human), UniProt P14902). Put plainly: HeLa cell based IDO1 inhibition assay (kynurenine readout, IFN-γ induced). The conditions noted are these: HeLa cells. The method, then: HeLa cell line was purchased from ATCC, cultured in MEM/EBSS medium supplemented with 10% FBS, penn-step (100,000 U/L), non-essential amino acid (0.1 Mm), sodium pyruvate (1.0 Mm). Cells were cultured at 37° C., 95% humidity and 5% CO2. […] The detailed experimental method is as follow:
25,000 HeLa cells were placed on 96-well plates. Each well contained 100 μl culture medium, subsequently IFN-γ and test compounds at specific concentrations (concentration range between 10 μM and 1 Nm, so that the final volume of culture medium was 200 μL) were added and IFN-γ was used to induce IDO1 expression. After incubation, 140 μL supernatant was transferred to 96-well plates. After adding 6.1 N TCA (10 μL), the plates were continuously incubated at 50° C. for 30 min, to hydrolyze N-formylkynurenine produced by IDO to kynurenine. The reaction solution was then centrifuged at 2500 rpm for 10 min to remove precipitate. 100 μL/well supernatant was then transferred to another 96-well plate. 100 μL of 2% (w/v) 4-N,N-dimethyl aminobenzaldehyde acetic acid solution was added and incubated at room temperature for 10 min. The yellow color derived from kynurenine was recorded by measuring absorbance at 480 nm using a microplate reader (TECAN Infinite M1000 Pro).

A further assay deals with HeLa cell based IDO1 (Homo sapiens (Human), UniProt P14902). Kind of assay: Three-point IDO1 cellular assay (HeLa, 10, 100 and 1000 nM). The conditions noted are these: HeLa cells, 100 ng/mL IFN-γ, 18 hours; for inhibition values of %: at 1000 nM. The method, then: To perform the 3-point HeLa cell based IDO1 assay, HeLa cells were seeded at 25,000 cells per well into 96-well microplate in 100 μL of growth medium. Cells were incubated at 37° C. and 5% CO2 overnight. The next day 100 μL per well of diluted inhibitor in growth medium at 10, 100 and 1000 nM, respectively, was added at a final concentration of 100 ng/ML human IFN-γ. Cells were incubated at 37° C. in a CO2 incubator for 18 hours. […] The plate was incubated at 50° C. for 30 min to hydrolyze N-formylkynurenine produced by IDO1 to kynurenine. The plate was then centrifuged at 2500 rpm for 10 min to remove sediments. 100 μl of supernatant per well was transferred to another 96-well plate and mixed with 100 μL of 2% (w/v) 4-(Dimethylamino) benzaldehyde in acetic acid. The plate was incubated at room temperature for 10 minutes, the yellow color derived from kynurenine was recorded by measuring absorbance at 480 nm using a microplate reader (TECAN Infinite M1000 Pro). Cell based assays were performed in triplicate at each concentration. The absorbance data were analyzed using the computer software, Graphpad Prism. In the absence of the compound and presence of 100 ng/ML IFN-γ, the absorbance (At) in each data set was defined as 100%. The absorbance of medium blank (Ab) in each data set was defined as 0%. The percent absorbance in the presence of each compound was calculated according to the following equation: % Absorbance=(A−Ab)/(At−Ab), where A=the absorbance in the presence of the compound and IFN-γ, Ab=the absorbance of medium blank, and At=the absorbance in the absence of the compounds and presence of IFN-γ. The values of % absorbance versus the compound concentrations were then determined.
HeLa cell based IDO1, sequence (P14902 whole entry): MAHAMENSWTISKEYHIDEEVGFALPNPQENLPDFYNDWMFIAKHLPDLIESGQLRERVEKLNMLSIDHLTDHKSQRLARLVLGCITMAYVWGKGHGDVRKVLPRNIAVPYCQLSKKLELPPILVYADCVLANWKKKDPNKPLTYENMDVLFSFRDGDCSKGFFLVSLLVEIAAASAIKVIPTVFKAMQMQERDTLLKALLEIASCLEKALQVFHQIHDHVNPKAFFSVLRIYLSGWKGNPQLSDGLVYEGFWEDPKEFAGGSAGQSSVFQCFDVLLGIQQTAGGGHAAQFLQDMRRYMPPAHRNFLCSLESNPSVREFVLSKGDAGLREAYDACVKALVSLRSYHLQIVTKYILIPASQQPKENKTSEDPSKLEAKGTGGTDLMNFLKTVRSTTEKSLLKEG

The values below come from US10202388B2, “Fused-ring compounds, pharmaceutical composition and uses thereof” (SHANGHAI DE NOVO PHARMATECH CO., LTD., priority 2015, dated 2019).

HeLa cell IDO1, sequence (P14902 whole entry): as above
Human recombinant IDO1, sequence (P14902 whole entry): as above

On to `CS(=O)(=O)NC1C2CC3CC1CC(C(O)CC1c4c(F)cccc4-c4cncn41)(C3)C2` (centres unmarked) [Compound 46], for which the 50% inhibitory concentration (IC50) on Human recombinant IDO1 and on HeLa cell IDO1 was less than 100 nM each time. In the case of `OC1C2CC3CC1CC([C@H](O)CC1c4c(F)cccc4-c4cncn41)(C3)C2` (some centres unmarked) [Compound 26A], the IC50 at Human recombinant IDO1 and at HeLa cell IDO1 was less than 100 nM in each case.

Consider `OC(CC1c2ncccc2-c2cncn21)C12CC3CC(CC(C3)C1)C2` (centres unmarked) [compound 4], for which the half-inhibitory concentration (IC50) at Human recombinant IDO1 fell in the range of 100 to 500 nM; on HeLa cell IDO1, 500 to 1000 nM. The like results for `O=C(C[C@@H]1c2ccccc2-c2cncn21)C12CC3CC(CC(C3)C1)C2` (single isomer, unassigned) [Compound 1-3] were, in that order, less than 100 nM and less than 100 nM.

As to `CC(C)(O)CCOC1C2CC3CC1CC(C(O)CC1c4c(F)cccc4-c4cncn41)(C3)C2` (centres unmarked) [Compound 58], the results for the IC50 on Human recombinant IDO1 and at HeLa cell IDO1 were 100 to 500 nM and less than 100 nM, respectively. As for `OC1C2CC3CC1CC(C(O)CC1c4ccccc4-c4cncn41)(C3)C2` (centres unmarked) [Compound 10A-3], on Human recombinant IDO1, the concentration for half-maximal inhibition (IC50) is 1000 to 10000 nM. Regarding `OC(CC1c2cc(F)ccc2-c2cncn21)C12CC3CC(CC(C3)C1)C2` (centres unmarked) [compound 7], on Human recombinant IDO1, the concentration for half-maximal inhibition (IC50) was in the range of 100 to 500 nM. With `OC(CC1c2c(F)cccc2-c2cncn21)C12CC3CC(CC(C3)C1)C2` (centres unmarked) [Compound 25], the IC50 is less than 100 nM at Human recombinant IDO1 and 100 to 500 nM against HeLa cell IDO1.

Turning to `OC(CC1c2c(F)cccc2-c2cncn21)C12CC3CC(CC(O)(C3)C1)C2` (centres unmarked) [Compound 22], the results for the IC50 at Human recombinant IDO1 and against HeLa cell IDO1 were less than 100 nM and 100 to 500 nM, respectively. With `O=C(NC1C2CC3CC1CC(C(O)CC1c4ccccc4-c4cncn41)(C3)C2)c1ccccc1` (single isomer, unassigned) [Compound 52B], the half-inhibitory concentration (IC50) is 100 to 500 nM on Human recombinant IDO1 and less than 100 nM against HeLa cell IDO1.

With `O=C(CC1CCCCC1)NC1C2CC3CC1CC(C(O)CC1c4c(F)cccc4-c4cncn41)(C3)C2` (centres unmarked) [Compound 49], the IC50 at Human recombinant IDO1 and against HeLa cell IDO1 was less than 100 nM each time. As to `OC(CC1c2ccccc2-c2cncn21)C12CC3CC(CC(C3)C1)C2` (centres unmarked) [Compound 1], the values for the concentration for half-maximal inhibition (IC50) at Human recombinant IDO1 and on HeLa cell IDO1 were less than 100 nM and 100 to 500 nM, respectively.

`OC(CC1c2ccccc2-c2cncn21)C12CC3CC(C1)C(c1ccccc1)C(C3)C2` (centres unmarked) [Compound 62A]: at Human recombinant IDO1, the 50% inhibitory concentration (IC50) is less than 100 nM. Moreover, the “inhibition values of %” value at HeLa cell based IDO1 is recorded as “greater than 50%”. With `OC1C2CC3CC1CC([C@@H](O)CC1c4c(F)cccc4-c4cncn41)(C3)C2` (some centres unmarked) [Compound 23A-4], the IC50 at Human recombinant IDO1 was in the range of 1000 to 10000 nM. For the compound `O=C(C[C@H]1c2ccccc2-c2cncn21)C12CC3CC(CC(C3)C1)C2` (single isomer, unassigned) [Compound 1-2], the IC50 at Human recombinant IDO1 was less than 100 nM; on HeLa cell IDO1, 100 to 500 nM. Take `CC1(O)C2CC3CC1CC([C@@H](O)CC1c4ccccc4-c4cncn41)(C3)C2` (some centres unmarked) [Compound 14A-1]: the half-inhibitory concentration (IC50) at Human recombinant IDO1 is 1000 to 10000 nM. `OC(CC1c2ccccc2-c2cncn21)C12CC3CC(CC(O)(C3)C1)C2` (centres unmarked) [Compound 9]: the IC50 on Human recombinant IDO1 is less than 100 nM; against HeLa cell IDO1 it was 100 to 500 nM.

`O=C(C[C@@H]1c2ccccc2-c2cncn21)C12CC3CC(CC(C3)C1)C2` (single isomer, unassigned) [Compound 1-4]: on Human recombinant IDO1, the 50% inhibitory concentration (IC50) lay within 1000 to 10000 nM. For the compound `OCCOC1C2CC3CC1CC(C(O)CC1c4c(F)cccc4-c4cncn41)(C3)C2` (centres unmarked) [Compound 61A], the 50% inhibitory concentration (IC50) at Human recombinant IDO1 and against HeLa cell IDO1 was less than 100 nM in each case. On to `OC1C2CC3CC1CC([C@H](O)CC1c4c(F)cccc4-c4cncn41)(C3)C2` (some centres unmarked) [Compound 23A-1], for which the IC50 at Human recombinant IDO1 is less than 100 nM; on HeLa cell IDO1, 100 to 500 nM. In the case of `OC1C2CC3CC1CC([C@@H](O)CC1c4c(F)cccc4-c4cncn41)(C3)C2` (some centres unmarked) [Compound 23B], the half-maximal inhibitory concentration (IC50) at Human recombinant IDO1 lay in the range of 100 to 500 nM. Also, the “inhibition values of %” value against HeLa cell based IDO1 is listed as “greater than 50%”. For the compound `OC1C2CC3CC1CC([C@H](O)CC1c4c(F)cccc4-c4cncn41)(C3)C2` (some centres unmarked) [Compound 23A], the IC50 on Human recombinant IDO1 and on HeLa cell IDO1 was less than 100 nM throughout. As for `OC1C2CC3CC1CC(C(O)CC1c4ccccc4-c4cncn41)(C3)C2` (centres unmarked) [Compound 14A], the IC50 on Human recombinant IDO1 and on HeLa cell IDO1 was less than 100 nM throughout.

`OC(CC1c2cccc(F)c2-c2cncn21)C12CC3CC(CC(C3)C1)C2` (centres unmarked) [compound 8]: at Human recombinant IDO1, the IC50 was in the range of 100 to 500 nM. Take `CC1(O)C2CC3CC1CC([C@H](O)CC1c4ccccc4-c4cncn41)(C3)C2` (some centres unmarked) [Compound 14A-4]: the 50% inhibitory concentration (IC50) on Human recombinant IDO1 and at HeLa cell IDO1 was less than 100 nM each time. Regarding `OC(CC1c2ncccc2-c2cncn21)C1CCCCC1` (centres unmarked) [compound 3], the IC50 on Human recombinant IDO1 was in the range of 100 to 500 nM. For the compound `O=S(=O)(Cc1ccccc1)NC1C2CC3CC1CC(C(O)CC1c4c(F)cccc4-c4cncn41)(C3)C2` (centres unmarked) [Compound 45A], the IC50 on Human recombinant IDO1 and at HeLa cell IDO1 was less than 100 nM each time.

Take `OC1C2CC3CC1CC([C@@H](O)CC1c4c(F)cccc4-c4cncn41)(C3)C2` (some centres unmarked) [Compound 26A-2]: the IC50 at Human recombinant IDO1 lay within 1000 to 10000 nM. Take `OC1C2CC3CC1CC([C@@H](O)CC1c4c(F)cccc4-c4cncn41)(C3)C2` (some centres unmarked) [Compound 26B]: the concentration for half-maximal inhibition (IC50) at Human recombinant IDO1 lay within 100 to 500 nM.

Take `OC(CC1c2c(F)cccc2-c2cncn21)C12CC3CC(CC(C3)C1)C2` (centres unmarked) [Compound 21]: the IC50 at Human recombinant IDO1 and at HeLa cell IDO1 was less than 100 nM throughout. In the case of `OC(Cn1c2ccccc2n2cncc12)C12CC3CC(CC(C3)C1)C2` (centres unmarked) [Compound 40], the IC50 on Human recombinant IDO1 is 1000 to 10000 nM. Same read-out and setting: the figure for `O=C(C[C@H]1c2ccccc2-c2cncn21)C12CC3CC(CC(C3)C1)C2` (single isomer, unassigned) [Compound 1-1] is 1000 to 10000 nM. With `OC1C2CC3CC1CC([C@@H](O)CC1c4ccccc4-c4cncn41)(C3)C2` (some centres unmarked) [Compound 10B], on Human recombinant IDO1, the IC50 was in the range of 100 to 500 nM. Regarding `O=C(Nc1ccccc1)NC1C2CC3CC1CC(C(O)CC1c4c(F)cccc4-c4cncn41)(C3)C2` (centres unmarked) [Compound 55], the half-inhibitory concentration (IC50) on Human recombinant IDO1 and against HeLa cell IDO1 was less than 100 nM in each case. On to `O=C(Cc1ccccc1)NC1C2CC3CC1CC(C(O)CC1c4ccccc4-c4cncn41)(C3)C2` (single isomer, unassigned) [Compound 53A], for which the 50% inhibitory concentration (IC50) on Human recombinant IDO1 is less than 100 nM. This compound registered an inhibition at 0.1 µM on HeLa cell based IDO1 (at 100 nM) greater than 50%. In the case of `OC(CC1c2ccccc2-c2cncn21)C12CC3CC(CC(C3)C1)C2` (centres unmarked) [Compound 13], the values for the IC50 on Human recombinant IDO1 and against HeLa cell IDO1 were less than 100 nM and 100 to 500 nM, respectively. As for `OC(CC1c2cccnc2-c2cncn21)C1CCCCC1` (centres unmarked) [compound 2], the IC50 at Human recombinant IDO1 fell in the range of 1000 to 10000 nM. Take `OC1C2CC3CC1CC(C(O)CC1c4ccccc4-c4cncn41)(C3)C2` (centres unmarked) [Compound 10A]: the IC50 at Human recombinant IDO1 and against HeLa cell IDO1 was less than 100 nM throughout. With `O=C(NC1C2CC3CC1CC(C(O)CC1c4ccccc4-c4cncn41)(C3)C2)c1ccccc1` (single isomer, unassigned) [Compound 52A], the half-inhibitory concentration (IC50) on Human recombinant IDO1 and against HeLa cell IDO1 was less than 100 nM each time.
